Earlier results, collected in US7446204B2, “Amino substituted aryloxybenzylpiperidine derivatives” (H. Lundbeck A/S, priority 2004, dated 2008).
Where two headings read alike, the source gives them in different places.

Legend:
[1] = target: T1, MCH1 receptor (Cavia porcellus, UniProt H0VKT7); conditions: guinea pig maternal-separation vocalization; Borowsky et al., Nature Medicine 2002
T1 construct: host or cells: living guinea pigs (endogenous receptor)

[2] = target: T2, MCH1 receptor (Rattus norvegicus, UniProt P97639); conditions: rat social interaction; Borowsky et al., Nature Medicine 2002
T2 construct: host or cells: living rats (endogenous receptor)

[3] = target: T2, MCH1 receptor; conditions: rat forced-swim; Borowsky et al., Nature Medicine 2002

T2 sequence (P97639 whole entry): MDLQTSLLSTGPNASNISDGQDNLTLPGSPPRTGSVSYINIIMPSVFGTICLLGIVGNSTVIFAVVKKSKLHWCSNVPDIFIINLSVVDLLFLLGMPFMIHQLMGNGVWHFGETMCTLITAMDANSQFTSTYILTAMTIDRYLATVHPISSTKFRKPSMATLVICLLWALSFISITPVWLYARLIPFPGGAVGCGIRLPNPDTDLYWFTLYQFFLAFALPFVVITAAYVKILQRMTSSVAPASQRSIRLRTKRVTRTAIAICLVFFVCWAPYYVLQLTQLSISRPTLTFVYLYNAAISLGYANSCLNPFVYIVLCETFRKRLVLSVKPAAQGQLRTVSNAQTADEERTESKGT
T1 sequence (H0VKT7 1-355): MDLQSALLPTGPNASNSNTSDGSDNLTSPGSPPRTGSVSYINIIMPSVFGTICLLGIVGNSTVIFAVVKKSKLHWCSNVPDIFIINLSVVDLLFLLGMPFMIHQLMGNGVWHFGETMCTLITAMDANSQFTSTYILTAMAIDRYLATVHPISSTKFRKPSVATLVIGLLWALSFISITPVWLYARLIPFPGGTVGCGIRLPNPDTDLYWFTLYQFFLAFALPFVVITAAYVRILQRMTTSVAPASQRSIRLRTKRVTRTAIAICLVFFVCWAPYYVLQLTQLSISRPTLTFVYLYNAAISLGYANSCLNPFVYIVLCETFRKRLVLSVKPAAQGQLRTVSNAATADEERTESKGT

## COCC1=C(C(=O)OC)[C@H](c2ccc(F)c(F)c2)N(C(=O)NCCCN2CCC(c3cccc(NC(C)=O)c3)CC2)C(=O)N1 [SNAP-7941]
[1]
  profile in behavioral model of depression and/or anxiety: profile similar to clinically used anti-depressants and anxiolytics
[2]
  profile in behavioral model of depression and/or anxiety: profile similar to clinically used anti-depressants and anxiolytics
[3]
  profile in behavioral model of depression and/or anxiety: profile similar to clinically used anti-depressants and anxiolytics
